Experimental data: the NIST ThermoML archive (doi:10.1016/j.jct.2017.05.020)
± gives the expanded uncertainty stated by the source.

How the values were obtained:
[1] = wn = mass fraction of the nth substance listed; conditions: 100 kPa, Liquid, Vibrating tube method
[2] = refractive index (Na D-line) (dimensionless); wn = mass fraction of the nth substance listed; conditions: 100 kPa, Liquid, Standard Abbe refractometry
[3] = 100 kPa, Liquid, Vibrating tube method
[4] = refractive index (Na D-line) (dimensionless); conditions: 100 kPa, Liquid, Standard Abbe refractometry

OCCOCCOCCO [triethylene glycol] + C=CC[P+](c1ccccc1)(c1ccccc1)c1ccccc1.[Br-]
w2 = 0
Conditions	mass density, [1] [kg/m3]	refractive index, [2]
293.15 K	1124.6 ± 7.9	1.4576 ± 0.0035
298.15 K	1120.8 ± 7.9	1.4558 ± 0.0035
303.15 K	1116.9 ± 7.8	1.4541 ± 0.0035
308.15 K	1113 ± 7.8	1.4523 ± 0.0035
313.15 K	1109.1 ± 7.8	1.4505 ± 0.0035
318.15 K	1105.2 ± 7.7	1.4488 ± 0.0035
323.15 K	1101.3 ± 7.7	1.4469 ± 0.0035
328.15 K	1097.4 ± 7.7	1.445 ± 0.0035
333.15 K	1093.5 ± 7.7	1.4434 ± 0.0035
338.15 K	1089.6 ± 7.6	1.4417 ± 0.0035
343.15 K	1085.6 ± 7.6	1.4399 ± 0.0035

OCCOCCOCCO [triethylene glycol]
Conditions	mass density, [3] [kg/m3]	refractive index, [4]
293.15 K	1124.6 ± 7.9	1.4576 ± 0.0035
298.15 K	1120.8 ± 7.9	1.4558 ± 0.0035
303.15 K	1116.9 ± 7.8	1.4541 ± 0.0035
308.15 K	1113 ± 7.8	1.4523 ± 0.0035
313.15 K	1109.1 ± 7.8	1.4505 ± 0.0035
318.15 K	1105.2 ± 7.7	1.4488 ± 0.0035
323.15 K	1101.3 ± 7.7	1.4469 ± 0.0035
328.15 K	1097.4 ± 7.7	1.445 ± 0.0035
333.15 K	1093.5 ± 7.7	1.4434 ± 0.0035
338.15 K	1089.6 ± 7.6	1.4417 ± 0.0035
343.15 K	1085.6 ± 7.6	1.4399 ± 0.0035

OCCOCCO [diethylene glycol]
Conditions	mass density, [3] [kg/m3]	refractive index, [4]
293.15 K	1116.5 ± 7.4	1.4477 ± 0.0032
298.15 K	1113 ± 7.4	1.4461 ± 0.0032
303.15 K	1109.4 ± 7.3	1.4446 ± 0.0032
308.15 K	1105.8 ± 7.3	1.443 ± 0.0032
313.15 K	1102.2 ± 7.3	1.4415 ± 0.0032
318.15 K	1098.6 ± 7.3	1.44 ± 0.0032
323.15 K	1095 ± 7.2	1.4384 ± 0.0032
328.15 K	1091.4 ± 7.2	1.4368 ± 0.0032
333.15 K	1087.7 ± 7.2	1.4351 ± 0.0032
338.15 K	1084 ± 7.2	1.4334 ± 0.0032
343.15 K	1080.3 ± 7.1	1.4317 ± 0.0032

C=CC[P+](c1ccccc1)(c1ccccc1)c1ccccc1.[Br-] [allyltriphenylphosphonium bromide] + OCCOCCOCCO
Conditions	mass density, w1 = 0.1375 [kg/m3]	mass density, w1 = 0.2033 [kg/m3]	mass density, w1 = 0.3895 [kg/m3]	refractive index, w1 = 0.1375	refractive index, w1 = 0.2033	refractive index, w1 = 0.3895
[1], 293.15 K	1146.2 ± 7.9	1159.2 ± 7.8	1190.8 ± 7.7	–	–	–
[1], 298.15 K	1142.5 ± 7.9	1155.5 ± 7.8	1187.1 ± 7.7	–	–	–
[1], 303.15 K	1138.8 ± 7.9	1151.7 ± 7.7	1183.4 ± 7.7	–	–	–
[1], 308.15 K	1135 ± 7.8	1148 ± 7.7	1179.7 ± 7.7	–	–	–
[1], 313.15 K	1131.3 ± 7.8	1144.2 ± 7.7	1176.1 ± 7.7	–	–	–
[1], 318.15 K	1127.5 ± 7.8	1140.5 ± 7.7	1172.4 ± 7.6	–	–	–
[1], 323.15 K	1123.7 ± 7.8	1136.7 ± 7.6	1168.7 ± 7.6	–	–	–
[1], 328.15 K	1119.9 ± 7.7	1133 ± 7.6	1165 ± 7.6	–	–	–
[1], 333.15 K	1116.1 ± 7.7	1129.2 ± 7.6	1161.3 ± 7.6	–	–	–
[1], 338.15 K	1112.2 ± 7.7	1125.5 ± 7.6	1157.6 ± 7.5	–	–	–
[1], 343.15 K	1108.4 ± 7.7	1121.7 ± 7.5	1153.9 ± 7.5	–	–	–
[2], 293.15 K	–	–	–	1.4803 ± 0.0038	1.4945 ± 0.0039	1.5314 ± 0.0037
[2], 298.15 K	–	–	–	1.4786 ± 0.0038	1.4927 ± 0.0039	1.5297 ± 0.0037
[2], 303.15 K	–	–	–	1.4769 ± 0.0038	1.4909 ± 0.0039	1.528 ± 0.0037
[2], 308.15 K	–	–	–	1.4752 ± 0.0038	1.4892 ± 0.0039	1.5263 ± 0.0037
[2], 313.15 K	–	–	–	1.4735 ± 0.0038	1.4874 ± 0.0039	1.5245 ± 0.0037
[2], 318.15 K	–	–	–	1.4717 ± 0.0038	1.4857 ± 0.0039	1.5228 ± 0.0037
[2], 323.15 K	–	–	–	1.47 ± 0.0038	1.4839 ± 0.0039	1.5211 ± 0.0037
[2], 328.15 K	–	–	–	1.4683 ± 0.0038	1.4822 ± 0.0039	1.5193 ± 0.0037
[2], 333.15 K	–	–	–	1.4666 ± 0.0038	1.4804 ± 0.0039	1.5176 ± 0.0037
[2], 338.15 K	–	–	–	1.4649 ± 0.0038	1.4787 ± 0.0039	1.5158 ± 0.0037
[2], 343.15 K	–	–	–	1.4632 ± 0.0038	1.4769 ± 0.0039	1.5141 ± 0.0037

C=CC[P+](c1ccccc1)(c1ccccc1)c1ccccc1.[Br-] [allyltriphenylphosphonium bromide] + OCCOCCO
Conditions	mass density, w1 = 0.1842 [kg/m3]	mass density, w1 = 0.2653 [kg/m3]	mass density, w1 = 0.4745 [kg/m3]	refractive index, w1 = 0.1842	refractive index, w1 = 0.2653	refractive index, w1 = 0.4745
[1], 293.15 K	1146.3 ± 7.5	1159.9 ± 7.6	1201.1 ± 7.6	–	–	–
[1], 298.15 K	1142.7 ± 7.4	1156.3 ± 7.6	1197.5 ± 7.6	–	–	–
[1], 303.15 K	1139.1 ± 7.4	1152.6 ± 7.5	1193.8 ± 7.6	–	–	–
[1], 308.15 K	1135.5 ± 7.4	1149 ± 7.5	1190.1 ± 7.6	–	–	–
[1], 313.15 K	1131.9 ± 7.4	1145.3 ± 7.5	1186.4 ± 7.5	–	–	–
[1], 318.15 K	1128.2 ± 7.3	1141.7 ± 7.5	1182.7 ± 7.5	–	–	–
[1], 323.15 K	1124.6 ± 7.3	1138 ± 7.4	1179 ± 7.5	–	–	–
[1], 328.15 K	1121 ± 7.3	1134.4 ± 7.4	1175.4 ± 7.5	–	–	–
[1], 333.15 K	1117.3 ± 7.3	1130.7 ± 7.4	1171.7 ± 7.4	–	–	–
[1], 338.15 K	1113.6 ± 7.2	1127 ± 7.4	1167.9 ± 7.4	–	–	–
[1], 343.15 K	1109.9 ± 7.2	1123.3 ± 7.4	1164.2 ± 7.4	–	–	–
[2], 293.15 K	–	–	–	1.4817 ± 0.0036	1.4955 ± 0.0037	1.5446 ± 0.0039
[2], 298.15 K	–	–	–	1.4801 ± 0.0036	1.4938 ± 0.0038	1.543 ± 0.0039
[2], 303.15 K	–	–	–	1.4784 ± 0.0036	1.4921 ± 0.0038	1.5413 ± 0.0039
[2], 308.15 K	–	–	–	1.4768 ± 0.0036	1.4904 ± 0.0037	1.5396 ± 0.0039
[2], 313.15 K	–	–	–	1.4752 ± 0.0036	1.4887 ± 0.0037	1.538 ± 0.0039
[2], 318.15 K	–	–	–	1.4735 ± 0.0036	1.487 ± 0.0037	1.5363 ± 0.0039
[2], 323.15 K	–	–	–	1.4718 ± 0.0036	1.4853 ± 0.0037	1.5346 ± 0.0039
[2], 328.15 K	–	–	–	1.4701 ± 0.0036	1.4836 ± 0.0037	1.5329 ± 0.0039
[2], 333.15 K	–	–	–	1.4684 ± 0.0035	1.4819 ± 0.0037	1.5313 ± 0.0039
[2], 338.15 K	–	–	–	1.4668 ± 0.0035	1.4802 ± 0.0037	1.5296 ± 0.0039
[2], 343.15 K	–	–	–	1.4651 ± 0.0035	1.4785 ± 0.0037	1.5279 ± 0.0039

OCCOCCO [diethylene glycol] + C=CC[P+](c1ccccc1)(c1ccccc1)c1ccccc1.[Br-]
w2 = 0
Conditions	mass density, [1] [kg/m3]	refractive index, [2]
293.15 K	1116.5 ± 7.4	1.4477 ± 0.0032
298.15 K	1113 ± 7.4	1.4461 ± 0.0032
303.15 K	1109.4 ± 7.3	1.4446 ± 0.0032
308.15 K	1105.8 ± 7.3	1.443 ± 0.0032
313.15 K	1102.2 ± 7.3	1.4415 ± 0.0032
318.15 K	1098.6 ± 7.3	1.44 ± 0.0032
323.15 K	1095 ± 7.2	1.4384 ± 0.0032
328.15 K	1091.4 ± 7.2	1.4368 ± 0.0032
333.15 K	1087.7 ± 7.2	1.4351 ± 0.0032
338.15 K	1084 ± 7.2	1.4334 ± 0.0032
343.15 K	1080.3 ± 7.1	1.4317 ± 0.0032
